Patent publication US11977028B2, “Mechanical-bond-induced exciplex fluorescence” (Northwestern University, priority 2020, dated 2024)
Several values for one entry are separate records, joined by “and”; a condition that tells them apart may be missing. Identical values can stand only once.

Experiments:
[1] = Absorption and photoluminescence spectroscopy in solution; format: physicochemical
Source text: The close proximity of the anthracene units in the mechanically interlocked cyclophanes was expected to give rise to remarkable optical properties distinct from those of the free cyclophanes. We explored the absorption and fluorescence properties of all compounds at high dilution (4×10^−7 M) to avoid reabsorption processes^40 and aggregation effects.^17 All of the optical parameters are summarized in Tables 1 and 2. Initially, we explored the influence of the pyridine/pyridinium units on the optical properties of both ^2,6AnBox^4+ and ^9,10AnBox^4+ cyclophanes. The presence of two pyridinium units within the linker dramatically affect the optical properties of the anthracene moiety. Although ^2,6AnBPY (FIG. 5C) and ^9,10AnBPY display^41 characteristic vibronic peaks associated with the anthracene moiety at 290 and 400 nm, ^2,6AnDB^2+ and ^9,10AnDB^2+ display a shift of the band at 290 to 330 nm (FIG. 5A) and the emergence of a new featureless broad band at 450 nm associated with CT from the anthracene moiety to the pyridinium unit. It is noteworthy that phenylene-bridged bipyridyl linkers (ExBIPY) display^35 a single absorption peak at 325 nm in MeCN, while the anthracene moiety leads to the emergence of some push-pull D-A character.
All reagents were purchased from commercial suppliers (Aldrich or Fisher) and used without further purification. Anthracene derivatives, 9,10-bis(4-pyridyl)anthracene (^9.^10AnBPY) and 2,6-bis(4-pyridyl)anthracene (^2,6AnBPY) were synthesized following^1,2 reports in the literature. All reactions and manipulations were carried out under a dry N2 atmosphere using standard Schlenk. Thin-layer chromatography (TLC) was performed on silica gel 60 F254 TLC plates (Merck). Column chromatography was carried out using CombiFlash® Automation Systems (Teledyne ISCO) employing both normal phase (RediSep Rf Gold® Normal-Phase Silica) and reverse phase (RediSep Rf Gold® Reversed-phase C18). […] All the spectra were baseline-corrected with a MeCN blank sample. The photoluminescence spectra of all samples were obtained with a Fluorolog-3 spectrafluorometer (Horiba Jobin Yvon) in a 2-mm quartz cuvette with 3-nm slit width and a front-phase geometry. The time-correlated single photon counting setup is described elsewhere.^3 Nuclear magnetic resonance (NMR) spectra were recorded on a Bruker Avance III 500 and 600 MHz spectrometers, with working frequencies of 500 and 600 MHz (′H NMR) and 125 MHz (^13C NMR), respectively. Chemical shifts are reported in ppm relative to the signals corresponding to the residual non-deuterated solvents (CD3CN: δ1−1=1.94 ppm and δC=1.32 ppm). High-resolution mass spectra (HRMS) were measured on an Agilent 6210 Time of Flight (TOF) LC-MS, using an ESI source, coupled with Agilent 1100 HPLC stack, using direct infusion (0.6 mL min ^−1). The binding constants were determined using this link: website http://supramolecular.org.^4

[2] = tested on: MIA PaCa-2 prostate cancer cells; assay: Live-cell confocal microscopy imaging; format: cell-based; details: 20×10^−6 M, 6 hours treatment, excitation 458 nm
Experimental: (§1) Cells were grown in standard DMEM (supplemented with 10% Fetal Bovine Serum and 1% Penicillin-Streptomycin, supplier=Corning). Cells were seeded into imaging coverglass chamber 40 hours prior to treatment. Compounds were resuspended in deionized H2O then diluted to the final concentration in media. Cells were treated with compounds for 6 hours prior to imaging.
(§2) All imaging was done on a Leica SP5 laser scanning confocal with LAS AF software in the Biological Imaging Facility at Northwestern University (Evanston, IL). A single excitation wavelength (458 nm) was used at a power of 5 uW. For the emission collection, two Leica spectral Hybrid (HyD) detectors were used; one was set to collect a wavelength range of 500-575 nm (with a gain of 200%) and the second was set to collect a wavelength range of 580-635 nm (with a gain of 103%). Images were processed with FIJI/ImageJ (NIH) and settings were kept consistent throughout the series of images.

MIA PaCa-2 cancer cells = assay: Live-cell confocal microscopy imaging; format: cell-based; details: concentrations lower than 10×10^−6 M
Experimental: as §1, §2

Φ (PL quantum yield) ([1]; 4 × 10^−7 M, MeCN): 3.6%
λabs ([1]; 4 × 10^−7 M, MeCN): 458 nm
λem ([1]; 4 × 10^−7 M, MeCN): 548 nm and 562 nm
τ (emission lifetime) ([1]; 4 × 10^−7 M, MeCN, 405 nm excitation): 3 ns
λem ([1]; 4 × 10^−7 M, MeCN, listed as cyclophane): 562 nm
Stokes shifts (δ) ([1]; DMF, 4 × 10^−7 M): 3153 cm⁻¹
λabs ([1]; DMF, 4 × 10^−7 M): 472 nm
λem ([1]; DMF, 4 × 10^−7 M): 549 nm
λexc ([1]; DMF, 4 × 10^−7 M): 468 nm
Stokes shifts (δ) ([1]; EtOH, 4 × 10^−7 M): 3574 cm⁻¹
λabs ([1]; EtOH, 4 × 10^−7 M): 468 nm
λem ([1]; EtOH, 4 × 10^−7 M): 562 nm
λexc ([1]; EtOH, 4 × 10^−7 M): 468 nm
Stokes shifts (δ) ([1]; H2O, 4 × 10^−7 M): 3284 cm⁻¹
λabs ([1]; H2O, 4 × 10^−7 M): 458 nm
λem ([1]; H2O, 4 × 10^−7 M): 553 nm
λexc ([1]; H2O, 4 × 10^−7 M): 468 nm
Stokes shifts (δ) ([1]; Me2SO, 4 × 10^−7 M): 3915 cm⁻¹
λabs ([1]; Me2SO, 4 × 10^−7 M): 460 nm
λem ([1]; Me2SO, 4 × 10^−7 M): 570 nm
λexc ([1]; Me2SO, 4 × 10^−7 M): 466 nm
charge transfer (CT) absorption band ([1]; MeCN): 458 nm
Stokes shifts (δ) ([1]; MeCN, 4 × 10^−7 M (Table 2)): 3946 cm⁻¹
λabs ([1]; MeCN, 4 × 10^−7 M (Table 2)): 458 nm
λem ([1]; MeCN, 4 × 10^−7 M (Table 2)): 562 nm
λexc ([1]; MeCN, 4 × 10^−7 M (Table 2)): 460 nm
charge transfer (CT) absorption band ([1]; MeCN, listed as cyclophane): 455 nm
Stokes shifts (δ) ([1]; MeOH, 4 × 10^−7 M): 3854 cm⁻¹
λabs ([1]; MeOH, 4 × 10^−7 M): 460 nm
λem ([1]; MeOH, 4 × 10^−7 M): 568 nm
λexc ([1]; MeOH, 4 × 10^−7 M): 466 nm
Compound: c1cc2ccc1C[n+]1ccc(cc1)-c1ccc3cc4cc(ccc4cc3c1)-c1cc[n+](cc1)Cc1ccc(cc1)C[n+]1ccc(cc1)-c1ccc3cc4cc(ccc4cc3c1)-c1cc[n+](cc1)C2 [^2,6AnBox^4+]
concentration dependence of excimer/exciplex emission ([1]; from high concentration to high dilution (10^−8 M)): absence of excimer emission at high concentration
emission in the green channel (500-575 nm) in live cells [2]: an emission in the green channel
emission in the red channel (580-635 nm) in live cells [2]: very weak emission in the red channel
emission detected in live cells (MIA PaCa-2 cancer cells): No emissions
